Data taken from PubChem BioAssay AID1259407 (Chemical Carcinogenesis Research Information System (CCRIS), 2018).
The source made the active and inactive calls. The rule behind the calls is not given here.

Tested on: CCRIS mutagenicity, Ames/micronucleus/aberration tests
Assay: CCRIS mutagenicity studies
[1] = Test System: AMES SALMONELLA TYPHIMURIUM, Strain/Indicator: TA98, Metabolic Activation: NONE, Method: STANDARD PLATE
[2] = Test System: AMES SALMONELLA TYPHIMURIUM, Strain/Indicator: TA98, Metabolic Activation: RAT, LIVER, S-9, AROCLOR 1254, Method: STANDARD PLATE
[3] = Test System: AMES SALMONELLA TYPHIMURIUM, Strain/Indicator: TA100, Metabolic Activation: NONE, Method: STANDARD PLATE
[4] = Test System: AMES SALMONELLA TYPHIMURIUM, Strain/Indicator: TA100, Metabolic Activation: RAT, LIVER, S-9, AROCLOR 1254, Method: STANDARD PLATE
[5] = Test System: AMES SALMONELLA TYPHIMURIUM, Strain/Indicator: TA1535, Metabolic Activation: NONE, Method: STANDARD PLATE
[6] = Test System: AMES SALMONELLA TYPHIMURIUM, Strain/Indicator: TA1535, Metabolic Activation: RAT, LIVER, S-9, AROCLOR 1254, Method: STANDARD PLATE
[7] = Test System: AMES SALMONELLA TYPHIMURIUM, Strain/Indicator: TA1537, Metabolic Activation: NONE, Method: STANDARD PLATE
[8] = Test System: AMES SALMONELLA TYPHIMURIUM, Strain/Indicator: TA1537, Metabolic Activation: RAT, LIVER, S-9, AROCLOR 1254, Method: STANDARD PLATE
[9] = Test System: AMES SALMONELLA TYPHIMURIUM, Strain/Indicator: TA1538, Metabolic Activation: NONE, Method: STANDARD PLATE
[10] = Test System: AMES SALMONELLA TYPHIMURIUM, Strain/Indicator: TA1538, Metabolic Activation: RAT, LIVER, S-9, AROCLOR 1254, Method: STANDARD PLATE

## O=PO.O=PO.[Mn+2]
[1]
  mutagenic call: inactive; negative
[2]
  mutagenic call: inactive; negative
[3]
  mutagenic call: inactive; negative
[4]
  mutagenic call: inactive; negative
[5]
  mutagenic call: inactive; negative
[6]
  mutagenic call: inactive; negative
[7]
  mutagenic call: inactive; negative
[8]
  mutagenic call: inactive; negative
[9]
  mutagenic call: inactive; negative
[10]
  mutagenic call: inactive; negative
Test System: E. COLI, Strain/Indicator: WP2, Metabolic Activation: NONE, Method: STANDARD PLATE
  mutagenic call: inactive; negative
Test System: E. COLI, Strain/Indicator: WP2, Metabolic Activation: RAT, LIVER, S-9, AROCLOR 1254, Method: STANDARD PLATE
  mutagenic call: inactive; negative

## Cc1nnc(NS(=O)(=O)c2ccc(N)cc2)s1
Test System: AMES SALMONELLA TYPHIMURIUM, Strain/Indicator: TA98, Metabolic Activation: HAMSTER, LIVER, S-9, AROCLOR 1254, Method: STANDARD PLATE
  mutagenic call: inactive; negative
[1]
  mutagenic call: inactive; negative
[2]
  mutagenic call: inactive; negative
Test System: AMES SALMONELLA TYPHIMURIUM, Strain/Indicator: TA100, Metabolic Activation: HAMSTER, LIVER, S-9, AROCLOR 1254, Method: STANDARD PLATE
  mutagenic call: inactive; negative
[3]
  mutagenic call: inactive; negative
[4]
  mutagenic call: inactive; negative
Test System: AMES SALMONELLA TYPHIMURIUM, Strain/Indicator: TA1535, Metabolic Activation: HAMSTER, LIVER, S-9, AROCLOR 1254, Method: STANDARD PLATE
  mutagenic call: inactive; negative
[5]
  mutagenic call: inactive; negative
[6]
  mutagenic call: inactive; negative
Test System: AMES SALMONELLA TYPHIMURIUM, Strain/Indicator: TA1537, Metabolic Activation: HAMSTER, LIVER, S-9, AROCLOR 1254, Method: STANDARD PLATE
  mutagenic call: inactive; negative
[7]
  mutagenic call: inactive; negative
[8]
  mutagenic call: inactive; negative
Test System: AMES SALMONELLA TYPHIMURIUM, Strain/Indicator: TA1538, Metabolic Activation: HAMSTER, LIVER, S-9, AROCLOR 1254, Method: STANDARD PLATE
  mutagenic call: inactive; negative
[9]
  mutagenic call: inactive; negative
[10]
  mutagenic call: inactive; negative
Test System: MOUSE LYMPHOMA, Strain/Indicator: L5178Y (TK+/TK-), Metabolic Activation: NONE, Method: SUSPENSION/PLATE
  mutagenic call: inactive; negative. reevaluation of results: negative
Test System: MOUSE LYMPHOMA, Strain/Indicator: L5178Y (TK+/TK-), Metabolic Activation: RAT, LIVER, S-9, AROCLOR 1254, Method: SUSPENSION/PLATE
  mutagenic call: inactive; negative. reevaluation of results: equivocal

## O=c1c2c(c3c(ccc4cc5c(ccc6ccccc65)[nH]c43)c1O)O2
Test System: AMES SALMONELLA TYPHIMURIUM, Strain/Indicator: TA98, Metabolic Activation: RAT, LIVER, AROCLOR 1254, NADPH GENERATING SYSTEM, Method: STANDARD PLATE
  mutagenic call: active; positive
Test System: AMES SALMONELLA TYPHIMURIUM, Strain/Indicator: TA100, Metabolic Activation: RAT, LIVER, AROCLOR 1254, NADPH GENERATING SYSTEM, Method: STANDARD PLATE
  mutagenic call: active; positive
Test System: CHINESE HAMSTER V-79, Strain/Indicator: V-79/8-AZAGUANINE, Method: STANDARD PLATE
  mutagenic call: active; positive

## CC[N+](=O)[O-]
Test System: AMES SALMONELLA TYPHIMURIUM, Strain/Indicator: TA98, Metabolic Activation: NONE, Method: PREINCUBATION
  mutagenic call: inactive; negative
Test System: AMES SALMONELLA TYPHIMURIUM, Strain/Indicator: TA98, Metabolic Activation: RAT, LIVER, S-9, KANECHLOR 500, Method: PREINCUBATION
  mutagenic call: inactive; negative
Test System: AMES SALMONELLA TYPHIMURIUM, Strain/Indicator: TA100, Metabolic Activation: NONE, Method: PREINCUBATION
  mutagenic call: inactive; negative
Test System: AMES SALMONELLA TYPHIMURIUM, Strain/Indicator: TA100, Metabolic Activation: RAT, LIVER, S-9, KANECHLOR 500, Method: PREINCUBATION
  mutagenic call: inactive; negative
Test System: AMES SALMONELLA TYPHIMURIUM, Strain/Indicator: TA102, Metabolic Activation: NONE, Method: PREINCUBATION
  mutagenic call: inactive; negative
Test System: E. COLI, Strain/Indicator: WP2 UVRA (PKM101), Metabolic Activation: NONE, Method: PREINCUBATION
  mutagenic call: inactive; negative
Test System: E. COLI, Strain/Indicator: WP2 UVRA (PKM101), Metabolic Activation: RAT, LIVER, S-9, KANECHLOR 500, Method: PREINCUBATION
  mutagenic call: inactive; negative

## COP1(=S)OCc2ccccc2O1 (stereo unspecified)
[3]
  mutagenic call: active; positive
Test System: AMES SALMONELLA TYPHIMURIUM, Strain/Indicator: TA100, Metabolic Activation: S-9 MIX, Method: STANDARD PLATE
  mutagenic call: active; positive
